Measured values taken from patent publication US9938273B2 (Plexxikon Inc., priority 2015, dated 2018).

How the values were obtained:
[1] = molecular target: T1, FLT3-D835Y (Homo sapiens, UniProt P36888, D835Y); test: AlphaScreen kinase assay with recombinant enzyme, FLT3-D835Y; type: biochemical; details: 8pt, GMean
T1 construct: purchased Invitrogen PV3967
T1 sequence (P36888 27-993 D835Y): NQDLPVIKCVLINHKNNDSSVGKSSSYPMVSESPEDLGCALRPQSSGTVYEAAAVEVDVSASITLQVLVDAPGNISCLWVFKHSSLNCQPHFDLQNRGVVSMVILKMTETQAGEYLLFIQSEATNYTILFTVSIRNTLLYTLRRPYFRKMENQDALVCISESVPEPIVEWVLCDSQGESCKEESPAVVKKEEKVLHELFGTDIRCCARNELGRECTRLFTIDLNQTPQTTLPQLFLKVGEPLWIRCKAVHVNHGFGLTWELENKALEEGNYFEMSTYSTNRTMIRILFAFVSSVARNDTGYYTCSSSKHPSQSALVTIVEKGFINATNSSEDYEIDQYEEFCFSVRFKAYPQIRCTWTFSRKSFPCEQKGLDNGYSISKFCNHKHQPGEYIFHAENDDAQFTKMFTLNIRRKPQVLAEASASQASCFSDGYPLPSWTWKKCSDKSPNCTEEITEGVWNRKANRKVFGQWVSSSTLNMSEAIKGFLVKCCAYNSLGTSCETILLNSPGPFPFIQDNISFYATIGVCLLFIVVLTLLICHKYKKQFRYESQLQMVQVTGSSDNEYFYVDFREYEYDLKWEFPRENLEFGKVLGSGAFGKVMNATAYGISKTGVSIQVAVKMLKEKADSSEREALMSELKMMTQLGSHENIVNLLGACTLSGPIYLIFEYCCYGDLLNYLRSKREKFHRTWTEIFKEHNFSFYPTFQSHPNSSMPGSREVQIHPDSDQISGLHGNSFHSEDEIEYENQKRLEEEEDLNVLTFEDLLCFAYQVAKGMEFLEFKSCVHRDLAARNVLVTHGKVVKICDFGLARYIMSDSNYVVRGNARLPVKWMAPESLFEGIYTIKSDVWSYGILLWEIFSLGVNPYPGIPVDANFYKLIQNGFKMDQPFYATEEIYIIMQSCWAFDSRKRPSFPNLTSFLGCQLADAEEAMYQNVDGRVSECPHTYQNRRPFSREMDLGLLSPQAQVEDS
Summary of the method: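 Compounds in DMSO added to enzyme plus biotin-poly(Glu4-Tyr) (30 nM) in assay buffer, then ATP added. Streptavidin donor beads added (20 min, RT), then PY20 acceptor beads (60 min, RT), both at 10 μg/mL final in stop/detection buffer. IC50 conditions: 10 μM FLT3-D835Y/ITD, 100 μM c-KIT.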

[2] = system: MOLM-14 D835Y cells, FLT3 ITD and FLT3 D835Y; test: Cell proliferation assay (CellTiter-Glo), MOLM-14 D835Y; type: cell-based; details: Homo sapiens, 72 h, 3d-Growth, GMean
Summary of the method: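 MOLM-14 AML cells (endogenous FLT3 ITD, AC220-selected D835Y or F691L variants) or murine Ba/F3 expressing full-length FLT3 ITD/D835Y, without IL-3 for FLT3 dependence, 1×10^4 cells/well. Eight-point 1:3 series from 1 μM final, 0.2% DMSO, 3 days at 37 °C. CellTiter-Glo luminescence (ATP) gave IC50.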

Row | Structure (SMILES) | IC50 [1] [µM] | IC50 [2] [µM]
1 | N#CC1(NC(=O)c2cccc(-c3cnc4[nH]c(-c5ccccc5)c(Cl)c4c3)n2)CC1 [Compound P-0139, 6-(3-chloro-2-phenyl-1H-pyrrolo[2,3-b]pyridin-5-yl)-N-(1-cyanocyclopropyl)pyridine-2-carboxamide] | 0.0001 to 10 | 0.0001 to 10
2 | CC(C)(C#N)CNC(=O)c1cccc(-c2cnc3[nH]c(C4=CCC(F)(F)CC4)cc3c2)n1 [Compound P-0157, N-(2-cyano-2-methyl-propyl)-6-[2-(4,4-difluorocyclohexen-1-yl)-1H-pyrrolo[2,3-b]pyridin-5-yl]pyridine-2-carboxamide] | 0.0001 to 10 | 0.0001 to 10
3 | N#CC1CCN(C(=O)c2cccc(-c3cnc4[nH]c(C5=CCOCC5)cc4c3)n2)C1 (stereo not drawn) [Compound P-0132, 1-[6-[2-(3,6-dihydro-2H-pyran-4-yl)-1H-pyrrolo[2,3-b]pyridin-5-yl]pyridine-2-carbonyl]pyrrolidine-3-carbonitrile] | 0.0001 to 10 | 0.0001 to 10
4 | N#Cc1cccc(-c2cc3cc(-c4cccc(C(=O)N5CCC(C#N)C5)n4)cnc3[nH]2)c1 (stereo not drawn) [Compound P-0133, 1-[6-[2-(3-cyanophenyl)-1H-pyrrolo[2,3-b]pyridin-5-yl]pyridine-2-carbonyl]pyrrolidine-3-carbonitrile] | 0.0001 to 10 | 0.0001 to 10
5 | CC(C)(C#N)NC(=O)c1cccc(-c2cnc3[nH]c(-c4ccccc4)cc3c2)n1 [Compound P-0118, N-(1-cyano-1-methyl-ethyl)-6-(2-phenyl-1H-pyrrolo[2,3-b]pyridin-5-yl)pyridine-2-carboxamide] | 0.0001 to 10 | 0.0001 to 10
6 | CC(C)(NC(=O)c1cccc(-c2cnc3[nH]c(C4=CCN(C(=O)C5CC5)C4)cc3c2)n1)C(N)=O [Compound P-0179, N-(2-amino-1,1-dimethyl-2-oxo-ethyl)-6-[2-[1-(cyclopropanecarbonyl)-2,5-dihydropyrrol-3-yl]-1H-pyrrolo[2,3-b]pyridin-5-yl]pyridine-2-carboxamide] | 0.0001 to 10 | 0.0001 to 10
7 | Cc1cc(-c2cc3cc(-c4cccc(C(=O)NC(C)(C)C#N)n4)cnc3[nH]2)cnn1 [Compound P-0163, N-(1-cyano-1-methyl-ethyl)-6-[2-(6-methylpyridazin-4-yl)-1H-pyrrolo[2,3-b]pyridin-5-yl]pyridine-2-carboxamide] | 0.0001 to 10 | 0.0001 to 10
8 | N#CCCNC(=O)c1cccc(-c2cnc3[nH]c(-c4ccccc4)c(I)c3c2)n1 [Compound P-0143, N-(2-cyanoethyl)-6-(3-iodo-2-phenyl-1H-pyrrolo[2,3-b]pyridin-5-yl)pyridine-2-carboxamide] | 0.0001 to 10 | 0.0001 to 10
9 | CC(C)(C#N)CNC(=O)c1cccc(-c2cnc3[nH]c(C4=CCS(=O)(=O)CC4)cc3c2)n1 [Compound P-0160, N-(2-cyano-2-methyl-propyl)-6-[2-(1,1-dioxo-3,6-dihydro-2H-thiopyran-4-yl)-1H-pyrrolo[2,3-b]pyridin-5-yl]pyridine-2-carboxamide] | 0.0001 to 10 | 0.0001 to 10
10 | O=C(c1cccc(-c2cnc3[nH]c(-c4ccccc4)cc3c2)n1)N1CCC(F)(F)C1 [Compound P-0093, (3,3-difluoropyrrolidin-1-yl)-[6-(2-phenyl-1H-pyrrolo[2,3-b]pyridin-5-yl)-2-pyridyl]methanone] | 0.0001 to 10 | 0.0001 to 10
11 | CNC(=O)C1CCN(C(=O)c2cccc(-c3cnc4[nH]c(-c5ccccc5)cc4c3)n2)C1 (stereo not drawn) [Compound P-0096, N-methyl-1-[6-(2-phenyl-1H-pyrrolo[2,3-b]pyridin-5-yl)pyridine-2-carbonyl]pyrrolidine-3-carboxamide] | 0.0001 to 10 | 0.0001 to 10
12 | CC(C)(C)NC(=O)c1cccc(-c2cnc3[nH]c(-c4ccccc4)cc3c2)n1 [Compound P-0140, N-tert-butyl-6-(2-phenyl-1H-pyrrolo[2,3-b]pyridin-5-yl)pyridine-2-carboxamide] | 0.0001 to 10 | 0.0001 to 10
13 | N#CCCNC(=O)c1cccc(-c2cnc3[nH]c(-c4ccccc4)c(Cl)c3c2)n1 [Compound P-0125, 6-(3-chloro-2-phenyl-1H-pyrrolo[2,3-b]pyridin-5-yl)-N-(2-cyanoethyl)pyridine-2-carboxamide] | 0.0001 to 10 | 0.0001 to 10
14 | Cc1nc(C(C)C)sc1-c1cc2cc(-c3cccc(C(=O)NC(C)(C)C#N)n3)cnc2[nH]1 [Compound P-0169, N-(1-cyano-1-methyl-ethyl)-6-[2-(2-isopropyl-4-methyl-thiazol-5-yl)-1H-pyrrolo[2,3-b]pyridin-5-yl]pyridine-2-carboxamide] | 0.0001 to 10 | 0.0001 to 10
15 | N#CC1(CNC(=O)c2cccc(-c3cnc4[nH]c(-c5ccccc5)cc4c3)n2)CC1 [Compound P-0137, N-[(1-cyanocyclopropyl)methyl]-6-(2-phenyl-1H-pyrrolo[2,3-b]pyridin-5-yl)pyridine-2-carboxamide] | 0.0001 to 10 | 0.0001 to 10
16 | Cc1cc(C#N)ccc1-c1cc2cc(-c3cccc(C(=O)N4CCC(C#N)C4)n3)cnc2[nH]1 (stereo not drawn) [Compound P-0130, 1-[6-[2-(4-cyano-2-methyl-phenyl)-1H-pyrrolo[2,3-b]pyridin-5-yl]pyridine-2-carbonyl]pyrrolidine-3-carbonitrile] | 0.0001 to 10 | 0.0001 to 10
17 | O=C(NC1(C(F)(F)F)CC1)c1cccc(-c2cnc3[nH]c(-c4ccccc4)cc3c2)n1 [Compound P-0156, 6-(2-phenyl-1H-pyrrolo[2,3-b]pyridin-5-yl)-N-[1-(trifluoromethyl)cyclopropyl]pyridine-2-carboxamide] | 0.0001 to 10 | 0.0001 to 10
18 | Cn1cc(-c2cc3cc(-c4cccc(C(=O)NCC(C)(C)C#N)n4)cnc3[nH]2)ccc1=O [Compound P-0155, N-(2-cyano-2-methyl-propyl)-6-[2-(1-methyl-6-oxo-3-pyridyl)-1H-pyrrolo[2,3-b]pyridin-5-yl]pyridine-2-carboxamide] | 0.0001 to 10 | 0.0001 to 10
19 | O=C(NC1(C(F)(F)F)CCCC1)c1cccc(-c2cnc3[nH]c(-c4ccccc4)cc3c2)n1 [Compound P-0149, 6-(2-phenyl1H-pyrrolo[2,3-b]pyridin-5-yl)-N-[1-(trifluoromethyl)cyclopentyl]pyridine-2-carboxamide] | 0.0001 to 10 | 0.0001 to 10
20 | CC(C)(C#N)NC(=O)c1cccc(-c2cnc3[nH]c(C4=CCNCC4)cc3c2)n1 [Compound P-0182, N-(1-cyano-1-methyl-ethyl)-6-[2-(1,2,3,6-tetrahydropyridin-4-yl)-1H-pyrrolo[2,3-b]pyridin-5-yl]pyridine-2-carboxamide] | 0.0001 to 10 | 0.0001 to 10
21 | CC(C)(C#N)NC(=O)c1cccc(-c2cnc3[nH]c(-c4cnn(CCN5CCOCC5)c4)cc3c2)n1 [Compound P-0174, N-(1-cyano-1-methyl-ethyl)-6-[2-[1-(2-morpholinoethyl)pyrazol-4-yl]-1H-pyrrolo[2,3-b]pyridin-5-yl]pyridine-2-carboxamide] | 0.0001 to 10 | 0.0001 to 10
22 | CC(C)(C#N)CNC(=O)c1cccc(-c2cnc3[nH]c(C4=CCN(C(=O)C5CC5)CC4)cc3c2)n1 [Compound P-0162, N-(2-cyano-2-methyl-propyl)-6-[2-[1-(cyclopropanecarbonyl)-3,6-dihydro-2H-pyridin-4-yl]-1H-pyrrolo[2,3-b]pyridin-5-yl]pyridine-2-carboxamide] | 0.0001 to 10 | 0.0001 to 10
23 | CC(C)(C#N)CNC(=O)c1cccc(-c2cnc3[nH]c(-c4ccccc4)c(Br)c3c2)n1 [Compound P-0126, 6-(3-bromo-2-phenyl-1H-pyrrolo[2,3-b]pyridin-5-yl)-N-(2-cyano-2-methyl-propyl)pyridine-2-carboxamide] | 0.0001 to 10 | 0.0001 to 10
24 | CC(C)(C#N)NC(=O)c1cccc(-c2cnc3[nH]c(C4=CCSCC4)cc3c2)n1 [Compound P-0180, N-(1-cyano-1-methyl-ethyl)-6-[2-(3,6-dihydro-2H-thiopyran-4-yl)-1H-pyrrolo[2,3-b]pyridin-5-yl]pyridine-2-carboxamide] | 0.0001 to 10 | 0.0001 to 10
